Test results: paper PMC10235067, “Increased renal elimination of endogenous and synthetic pyrimidine nucleosides in concentrative nucleoside transporter 1 deficient mice” (Nature Communications, 2023)
Several values for one entry are separate records, joined by “and”; a condition that tells them apart may be missing. Equal values may be shown once. Where a name gives a salt, the structure may show the parent alone.

Experiments:
KPC cells [1] = test: Survival of mice with orthotopic syngeneic KPC pancreatic tumors treated with dFdC
KPC cells [2] = test: Tumor burden by bioluminescent imaging after orthotopic implantation of KPC-LUC cells; settings: orthotopic KPC-LUC tumors, Gemcitabine group, Fig. 6C source data
[3] = Gemcitabine urine pharmacokinetics (renal excretion) in Slc28a1+/+ and Slc28a1-/- mice; settings: Figure 5 G, H, I, individual mice
Description: THU was added to the mouse urine samples upon collection and frozen until analysis. […] Five microliters of the diluted samples were transferred to a 96-well autosampler plate then 10 µL of internal standard mixture was added and mixed. […] The plate was then transferred to the 4 °C autosampler for analysis.
The chromatographic separation was performed on a Thermo Accucore aQ 2.6 µm, 100 ×2.1 mm column at 30 °C using a gradient with a 10 µL injection volume. The mobiles phases were 1 mM ammonium acetate in deionized water pH 6.8 and acetonitrile. The total run time was 5.5 min. […] The LC–MS/MS analysis was conducted on a Thermo Vanquish UHPLC with a TSQ Quantiva mass spectrometer equipped with an electrospray ionization source.

In the case of `Nc1ccn([C@@H]2O[C@H](CO)[C@@H](O)C2(F)F)c(=O)n1` [dFdC, Gemcitabine hydrochloride, reference compound], the “Survival, Days (individual mice)” value (KPC cells [1]; CNT1 (Slc28a1-/-) Gemcitabine (25mg/ml) group, Fig. 6E source data) is reported as 27 days and 32 days and 35 days and 39 days, the “Survival, Days (individual mice)” value (KPC cells [1]; CNT1 (Slc28a1-/-) Gemcitabine (37mg/ml) group, Fig. 6E source data) is reported as 30 days and 43 days and 45 days and 46 days and the “Survival, Days (individual mice)” value (KPC cells [1]; CNT1 (Slc28a1-/-) Gemcitabine group, Fig. 6D source data) is reported as 26 days and 43 days and 35 days and 23 days and 45 days. For the same compound, the “Survival event flag (1 = event, 0 = censored), individual mice” value (shortened to “Survival event flag”) (KPC cells [1]; CNT1 + Gemcitabine (Slc28a1-/-), Fig. 6D source data) was 1, the “Survival event flag” value (KPC cells [1]; CNT1 Gemcitabine (25mg/ml), Fig. 6E source data, column headed CNT1 + Vehicle) was 1 and the “Survival event flag” value (KPC cells [1]; CNT1 Gemcitabine (37mg/ml), Fig. 6E source data) was 1. For the same compound, the “mice remaining healthy at day 45” value (KPC cells [1]; Slc28a1+/+ mice, dFdC 25 mg/kg i.v.) was “approximately 66%”, the median overall survival (KPC cells [1]; Slc28a1+/+ mice, dFdC 25 mg/kg i.v. twice a week, Fig. 6D) was over 50 days and the “day by which all mice died” value (KPC cells [1]; Slc28a1-/- mice, dFdC 25 mg/kg i.v.) was at most 45 days. For the same compound, the median overall survival (KPC cells [1]; Slc28a1-/- mice, dFdC 25 mg/kg i.v. twice a week, Fig. 6D) was 39 days, the median overall survival (KPC cells [1]; Slc28a1-/- mice, dFdC 37 mg/kg i.v. twice a week, Fig. 6E) was 42 days and the “Survival event flag” value (KPC cells [1]; WT + Gemcitabine, Fig. 6D source data) was 0 and 1. The “Survival, Days (individual mice)” value (KPC cells [1]; WT Gemcitabine group, Fig. 6D source data, event flag in WT + Gemcitabine) was 50 days and 33 days and 45 days, the “Tumor burden (bioluminescent imaging signal), individual mice” value (shortened to “Tumor burden”) (KPC cells [2]; day 7, Slc28a1-/- mice) was -32133333333 and 23906666667 and -21903333333 and -24593333333 and -34283333333 and 89006666667 and the “Tumor burden” value (KPC cells [2]; day 7, wild-type mice) was 59739000000 and -37121000000 and -92035000000 and 9139000000 and 52739000000 and 7539000000. For the same compound, the “Tumor burden” value (KPC cells [2]; day 14, Slc28a1-/- mice) was 144007000000 and 59806666667 and 55206666667 and 122107000000 and 12746666667 and 52806666667, the “Tumor burden” value (KPC cells [2]; day 14, wild-type mice) was 127000000000 and 202000000000 and 71900000000 and 123000000000 and 33800000000 and -44800000000 and the “Tumor burden” value (KPC cells [2]; day 21, Slc28a1-/- mice) was 903000000000 and 356000000000 and 622000000000 and 1010000000000 and 2710000000000 and 506000000000. For the same compound, the “Tumor burden” value (KPC cells [2]; day 21, wild-type mice) was 998000000000 and 735000000000 and 252000000000 and 420000000000 and 526000000000 and 763000000000, the “Tumor burden” value (KPC cells [2]; day 25, Slc28a1-/- mice) was 1770000000000 and 1210000000000 and 722000000000 and 1860000000000 and 1930000000000 and 2060000000000 and the “Tumor burden” value (KPC cells [2]; day 25, wild-type mice) was 1230000000000 and 109000000000 and 355000000000 and 803000000000 and 1440000000000 and 1090000000000. For the same compound, the “Cp (Gemcitabine)” value ([3]; KO mice, 5 Minutes) was 667.756 µg/mL and 701.121 µg/mL and 742.057 µg/mL and 708.576 µg/mL and 1006.774 µg/mL, the “Cp (Gemcitabine)” value ([3]; KO mice, 10 Minutes) was 1196.136 µg/mL and 1117.096 µg/mL and 1176.76 µg/mL and 1333.848 µg/mL and 1383.016 µg/mL and 1407.258 µg/mL and the “Cp (Gemcitabine)” value ([3]; KO mice, 15 Minutes) was 1417.457 µg/mL and 1463.209 µg/mL and 1417.045 µg/mL and 1464.236 µg/mL and 1528.485 µg/mL and 1605.582 µg/mL. For the same compound, the “Cp (Gemcitabine)” value ([3]; KO mice, 30 Minutes) was 1020.435 µg/mL and 1043.589 µg/mL and 1004.789 µg/mL and 686.314 µg/mL and 637.597 µg/mL, the “Cp (Gemcitabine)” value ([3]; KO mice, 60 Minutes) was 806.557 µg/mL and 703.249 µg/mL and 814.631 µg/mL and 838.872 µg/mL and 677.262 µg/mL and the “Cp (Gemcitabine)” value ([3]; KO mice, 120 Minutes) was 1007.916 µg/mL and 1001.638 µg/mL and 923.671 µg/mL and 928.827 µg/mL and 1022.245 µg/mL. For the same compound, the “Cp (Gemcitabine)” value ([3]; KO mice, 240 Minutes) was 131.108 µg/mL and 117.705 µg/mL and 128.911 µg/mL and 104.939 µg/mL and 51.416 µg/mL and 148.894 µg/mL, the “Cp (Gemcitabine)” value ([3]; WT mice, 5 Minutes) was 473.332 µg/mL and 486.741 µg/mL and 465.952 µg/mL and 485.933 µg/mL and 493.479 µg/mL and the “Cp (Gemcitabine)” value ([3]; WT mice, 10 Minutes) was 654.272 µg/mL and 654.234 µg/mL and 642.732 µg/mL and 677.281 µg/mL and 755.524 µg/mL. For the same compound, the “Cp (Gemcitabine)” value ([3]; WT mice, 15 Minutes) was 869.257 µg/mL and 882.561 µg/mL and 865.564 µg/mL and 871.549 µg/mL and 735.964 µg/mL, the “Cp (Gemcitabine)” value ([3]; WT mice, 30 Minutes) was 865.074 µg/mL and 694.859 µg/mL and 1051.246 µg/mL and 934.229 µg/mL and 1018.271 µg/mL and the “Cp (Gemcitabine)” value ([3]; WT mice, 60 Minutes) was 691.965 µg/mL and 701.388 µg/mL and 530.199 µg/mL and 662.975 µg/mL and 688.86 µg/mL. The “Cp (Gemcitabine)” value ([3]; WT mice, 120 Minutes) was 410.29 µg/mL and 371.477 µg/mL and 406.197 µg/mL and 640.633 µg/mL and 369.675 µg/mL.
